Laboratory results reported in ChEMBL document CHEMBL1138874, “Design and synthesis of a series of novel pyrazolopyridines as HIF-1alpha prolyl hydroxylase inhibitors” (Bioorg Med Chem Lett, 2006).

These compounds were tested on HEK293 (assay: cells). Details: Homo sapiens.

Compared with COc1ccc(COCc2ccc(-n3cc(C(=O)O)cn3)nc2)cc1, O=C(O)c1cnn(-c2ccc(COCc3ccc(Cl)cc3)cn2)c1 is 7.4-fold higher in EC50: 1 µM for the first, 7.4 µM for the second.

Going from O=C(O)c1cnn(-c2ccc(COCc3cccc(C(F)(F)F)c3)cn2)c1 to O=C(O)c1cnn(-c2ccc(COCc3cccc(Cl)c3)cn2)c1, the EC50 falls from 11 µM to 3.8 µM (2.9-fold).

Going from N#Cc1ccccc1-c1ccc(COCc2ccc(-n3cc(C(=O)O)cn3)nc2)cc1 to O=C(O)c1cnn(-c2ccc(COCc3ccccc3)cn2)c1, the EC50 falls from greater than 100 µM to 25 µM. The second is the more potent here.

In the case of COc1cccc(COCc2ccc(-n3cc(C(=O)O)cn3)nc2)c1, the EC50 is reported as greater than 100 µM.
